In ChEMBL document CHEMBL5257106, “Design, synthesis, and biological evaluation of novel HDAC inhibitors with a 3-(benzazol-2-yl)quinoxaline framework” (Bioorg Med Chem Lett, 2023):
pIC50: −log10 of the molar value. Active and inactive are the calls of the source. The calls are words filed in the database; no cut-off is given here.

Key:
HCT-116 [1] = assay: Induction of apoptosis in human HCT-116 cells assessed as late apoptotic cells at 0.5 uM incubated for 24 hrs by Annexin V-FITC/PI staining based flow cytometry analysis (reference value: 0.323%); assay type: functional
[2] = target: T1, DNA topoisomerase 1 (Homo sapiens) (UniProt P11387); assay: Inhibition of topoisomerase 1 (unknown origin) assessed as effect on DNA by gel electrophoresis
T1 sequence (whole entry): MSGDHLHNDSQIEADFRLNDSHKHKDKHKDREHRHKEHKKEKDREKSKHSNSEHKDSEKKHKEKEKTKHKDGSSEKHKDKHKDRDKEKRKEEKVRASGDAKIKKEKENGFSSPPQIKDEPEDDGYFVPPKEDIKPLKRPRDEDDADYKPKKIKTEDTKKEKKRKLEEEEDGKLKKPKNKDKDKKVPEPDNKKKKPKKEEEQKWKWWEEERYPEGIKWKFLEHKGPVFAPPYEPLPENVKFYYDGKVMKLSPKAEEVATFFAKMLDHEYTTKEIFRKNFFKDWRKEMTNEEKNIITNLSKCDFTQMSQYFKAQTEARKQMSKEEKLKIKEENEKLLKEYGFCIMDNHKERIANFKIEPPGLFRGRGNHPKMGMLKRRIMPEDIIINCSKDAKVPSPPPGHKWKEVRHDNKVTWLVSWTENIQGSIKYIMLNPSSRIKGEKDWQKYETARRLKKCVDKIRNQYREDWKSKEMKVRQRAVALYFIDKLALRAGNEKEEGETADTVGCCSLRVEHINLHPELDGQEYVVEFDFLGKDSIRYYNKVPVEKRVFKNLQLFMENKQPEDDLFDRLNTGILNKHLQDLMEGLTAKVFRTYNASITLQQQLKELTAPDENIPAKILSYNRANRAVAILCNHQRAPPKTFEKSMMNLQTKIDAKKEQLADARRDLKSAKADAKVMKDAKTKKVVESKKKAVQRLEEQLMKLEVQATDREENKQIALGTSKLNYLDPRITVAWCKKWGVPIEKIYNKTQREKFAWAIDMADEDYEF

HL-60 [3] = assay: Antiproliferative activity against human HL-60 cells assessed as inhibition of cell growth by MTT assay; assay type: functional, cell-based
K562 [4] = assay: Antiproliferative activity against human K562 cells assessed as inhibition of cell growth by MTT assay; assay type: functional, cell-based
[5] = Cytotoxicity against HUVEC cells assessed as inhibition of cell growth by MTT assay; details: human
HCT-116 [6] = assay: Potency index, ratio of SAHA IC50 to test compound IC50 for antiproliferative activity against human HCT-116 cells assessed as inhibition of cell growth by MTT assay; assay type: functional
K562 [7] = assay: Potency index, ratio of SAHA IC50 to test compound IC50 for antiproliferative activity against human K562 cells assessed as inhibition of cell growth by MTT assay; assay type: functional
HL-60 [8] = assay: Potency index, ratio of SAHA IC50 to test compound IC50 for antiproliferative activity against human HL-60 cells assessed as inhibition of cell growth by MTT assay; assay type: functional
Histone deacetylase 2 = Histone deacetylase 2 (Homo sapiens, UniProt Q92769); assay: Inhibition of HDAC2 (unknown origin)
Sequence of Histone deacetylase 2 (Q92769 whole entry): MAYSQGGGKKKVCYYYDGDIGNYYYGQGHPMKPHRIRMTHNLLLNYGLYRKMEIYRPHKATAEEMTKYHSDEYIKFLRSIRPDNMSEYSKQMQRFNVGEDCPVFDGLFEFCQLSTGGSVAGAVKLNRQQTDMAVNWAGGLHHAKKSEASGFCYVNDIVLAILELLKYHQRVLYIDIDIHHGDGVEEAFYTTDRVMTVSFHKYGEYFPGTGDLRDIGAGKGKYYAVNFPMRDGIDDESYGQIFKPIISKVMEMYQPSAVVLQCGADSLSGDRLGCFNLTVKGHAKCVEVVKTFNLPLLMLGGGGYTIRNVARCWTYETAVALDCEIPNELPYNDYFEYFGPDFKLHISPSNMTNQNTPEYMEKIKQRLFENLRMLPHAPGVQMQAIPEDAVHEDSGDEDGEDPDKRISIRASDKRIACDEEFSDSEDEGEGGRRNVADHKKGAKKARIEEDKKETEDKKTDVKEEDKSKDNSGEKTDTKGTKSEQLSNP

HCT-116 [9] = assay: Induction of apoptosis in human HCT-116 cells assessed as decrease in Bcl-2 protein expression incubated for 24 hrs by Western blot analysis; assay type: functional, cell-based; details: dose 0.5-1 µM
RS4-11 = assay: Antiproliferative activity against human RS4-11 cells assessed as inhibition of cell growth by MTT assay; assay type: functional, cell-based
HCT-116 [10] = assay: Induction of apoptosis in human HCT-116 cells assessed as increase in Bax protein expression at 0.5 to 1 uM incubated for 24 hrs by Western blot analysis; assay type: functional, cell-based; details: dose 0.5-1 µM
[11] = target: T2, Protein deacetylase HDAC6 (Homo sapiens, UniProt Q9UBN7); assay: Inhibition of HDAC6 (unknown origin)
T2 sequence (Q9UBN7 whole entry): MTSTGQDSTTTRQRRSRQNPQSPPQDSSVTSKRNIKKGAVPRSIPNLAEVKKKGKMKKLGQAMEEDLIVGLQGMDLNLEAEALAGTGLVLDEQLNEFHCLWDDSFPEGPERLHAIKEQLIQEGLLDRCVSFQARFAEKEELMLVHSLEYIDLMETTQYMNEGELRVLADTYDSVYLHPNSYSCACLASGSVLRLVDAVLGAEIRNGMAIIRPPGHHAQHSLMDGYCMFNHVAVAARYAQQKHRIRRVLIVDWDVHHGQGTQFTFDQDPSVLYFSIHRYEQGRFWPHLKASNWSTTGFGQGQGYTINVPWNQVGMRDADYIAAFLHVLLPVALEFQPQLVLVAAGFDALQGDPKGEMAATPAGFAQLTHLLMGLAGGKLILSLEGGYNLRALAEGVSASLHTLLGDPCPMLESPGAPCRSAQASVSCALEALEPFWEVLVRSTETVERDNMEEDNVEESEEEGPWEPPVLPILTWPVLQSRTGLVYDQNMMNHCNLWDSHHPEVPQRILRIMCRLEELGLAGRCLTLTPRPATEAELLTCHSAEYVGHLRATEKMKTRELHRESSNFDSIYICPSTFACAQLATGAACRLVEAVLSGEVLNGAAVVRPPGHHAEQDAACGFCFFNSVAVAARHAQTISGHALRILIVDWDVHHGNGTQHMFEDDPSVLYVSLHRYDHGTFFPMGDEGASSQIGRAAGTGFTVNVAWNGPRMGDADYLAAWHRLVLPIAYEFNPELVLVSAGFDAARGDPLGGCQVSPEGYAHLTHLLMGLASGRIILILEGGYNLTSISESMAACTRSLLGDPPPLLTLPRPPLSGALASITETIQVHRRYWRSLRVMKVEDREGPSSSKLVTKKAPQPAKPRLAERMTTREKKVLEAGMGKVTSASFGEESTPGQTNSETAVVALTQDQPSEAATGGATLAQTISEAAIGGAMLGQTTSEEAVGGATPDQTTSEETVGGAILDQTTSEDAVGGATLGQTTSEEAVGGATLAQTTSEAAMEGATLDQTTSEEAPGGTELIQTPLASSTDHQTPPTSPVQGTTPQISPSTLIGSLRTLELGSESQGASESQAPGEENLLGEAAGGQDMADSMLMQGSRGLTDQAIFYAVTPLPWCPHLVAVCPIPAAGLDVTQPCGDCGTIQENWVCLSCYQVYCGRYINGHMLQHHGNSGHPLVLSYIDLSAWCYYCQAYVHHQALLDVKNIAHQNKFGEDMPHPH

Histone deacetylase 1 = Histone deacetylase 1 (Homo sapiens, UniProt Q13547); assay: Inhibition of HDAC1 (unknown origin)
Sequence of Histone deacetylase 1 (Q13547 whole entry): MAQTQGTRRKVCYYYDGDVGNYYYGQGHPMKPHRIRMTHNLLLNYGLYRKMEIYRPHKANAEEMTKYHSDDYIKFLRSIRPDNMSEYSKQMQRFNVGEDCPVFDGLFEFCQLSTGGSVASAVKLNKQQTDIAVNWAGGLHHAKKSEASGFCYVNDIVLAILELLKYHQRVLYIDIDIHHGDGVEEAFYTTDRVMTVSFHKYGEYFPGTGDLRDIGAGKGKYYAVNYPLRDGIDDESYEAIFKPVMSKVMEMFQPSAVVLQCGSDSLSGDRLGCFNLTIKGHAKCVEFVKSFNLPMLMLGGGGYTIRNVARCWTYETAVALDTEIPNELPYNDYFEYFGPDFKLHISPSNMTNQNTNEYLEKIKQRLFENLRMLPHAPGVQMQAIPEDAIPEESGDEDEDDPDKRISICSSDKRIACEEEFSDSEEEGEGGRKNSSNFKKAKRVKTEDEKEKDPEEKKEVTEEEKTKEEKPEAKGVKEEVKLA

HCT-116 [12] = assay: Induction of apoptosis in human HCT-116 cells assessed as total apoptotic cells at 0.5 uM incubated for 24 hrs by Annexin V-FITC/PI staining based flow cytometry analysis (reference value: 6.823%); assay type: functional
[13] = target: Histone deacetylase (Homo sapiens) (UniProt Q13547+O15379+Q9UBN7+Q92769+Q9UQL6+Q8WUI4+Q9BY41+Q96DB2+P56524+Q9UKV0+Q969S8); assay: Inhibition of HDAC in human HCT-116 cells assessed as increase in histone H3 acetylation incubated for 24 hrs by Western blot analysis; assay type: cell-based; details: dose 0.5-1 µM

- inhibition [2]: inactive
- pIC50 (HL-60 [3]): 6.05
- pIC50 (K562 [4]): 6.05
- pIC50 (Histone deacetylase 2): 7.46
- pIC50 (RS4-11): 6.05
- pIC50 [11]: 7.35
- pIC50 (Histone deacetylase 1): 7.96
- inhibition [13]: Dose-Dependent Effect
Structure (SMILES): O=C(CCCCCCNc1nc2ccccc2nc1-c1nc2ccccc2o1)NO
- Activity (HCT-116 [1]): 7.21%
- pIC50 [5]: 4.72
- Ratio IC50 (HCT-116 [6]): 6
- Ratio IC50 (K562 [7]): 2
- Ratio IC50 (HL-60 [8]): 2
- Activity (HCT-116 [9]): Dose-Dependent Effect
- Activity (HCT-116 [10]): Active
- Activity (HCT-116 [12]): 35.31%
